How the values were obtained:
[1] = test system: cardiomyocytes derived from stem cells (differentiated induced pluripotent stem cells); assay: In vitro assay with Endpoint A (causally associated with cardiomyopathy) on stem-cell-derived cardiomyocytes from 100 donors; assay type: cell-based, human
Experimental: An in vitro assay is then identified whose endpoint—referred to herein as Endpoint A—includes one that is causally associated with one of the cardiotoxic effects of doxorubicin: cardiomyopathy. Concentrations of doxorubicin as prescribed by the in vitro assay's protocol are prepared in a concentration that corresponds to doses of 500 mg and 600 mg administered in vivo.
In vitro tests are conducted at these concentrations on a representative sample of cardiomyocytes derived from stem cells (the cardiomyocytes are differentiated induced pluripotent stem cells) originating from a sample of 100 donors, and then the donors are arrayed in order of ascending scores on Endpoint A.
The “Reaction Threshold Prediction Model” is selected as the mathematical transform in their procedure. It is noted from the doxorubicin clinical cardiotoxicity data mentioned above that 12% of the clinical trial participants experienced cardiomyopathy when treated at the 500 mg dose level. Using the in vitro test results above, the Endpoint A score is determined that is associated with the 88th Percentile member of the in vitro cohort of 100 donors (88 representing 100% minus the 12% of the sample in vivo who experienced cardiomyopathy following treatment with a 500 mg dose). The Endpoint A score reads 70 units.
Next, the in vitro assay of doxorubicin is repeated, with a concentration corresponding to a 600 mg dose administered in vivo, on a representative sample of cardiomyocytes derived from stem cells originating from a sample of 100 donors, and then the donors are arrayed in order of ascending scores on Endpoint A. This time, the Endpoint A score is detected for the donor at the 76th Percentile (76 representing 100% minus the […] of the sample in vivo who experienced cardiomyopathy following treatment with a 600 mg dose). This time, the Endpoint A score reads 65 units. […]

[2] = cited from earlier work

Structure (SMILES): COc1cccc2c1C(=O)c1c(O)c3c(c(O)c1C2=O)C[C@@](O)(C(=O)CO)C[C@@H]3O[C@H]1C[C@H](N)[C@H](O)[C@H](C)O1 [doxorubicin]
- Endpoint A score ([1]; concentration corresponding to 500 mg dose, 88th percentile member of 100 donors): 70 units
- Endpoint A score ([1]; concentration corresponding to 600 mg dose, donor at 76th percentile of 100 donors): 65 units
- Endpoint A score approximating threshold of impact (presumed toxicity threshold) ([1]; leads to incidences of cardiomyopathy in the range of 10 to 25 percent): 65-70
- clinical trial participants who experienced cardiomyopathy ([2]; 500 mg dose level): 12%
- sample in vivo who experienced cardiomyopathy ([2]; 600 mg dose): 23%

From patent publication US20180224430A1, “Method of Estimating the Incidence of In Vivo Reactions to Chemical or Biological Agents Using In Vitro Experiments” (Coyne Scientific, LLC, priority 2015, published 2018)
